In US4062816A, “D-Ala^5 -somatostatin and intermediates thereto” (Eli Lilly and Company, priority 1976, dated 1977):

Legend:
insulin = assay: inhibition of insulin secretion in dogs during L-alanine infusion; assay type: in vivo, mongrel dogs; conditions: intravenous infusion 0.20-0.30 μg/kg/minute (D-Ala5-somatostatin 0.230 μg/kg/min.); fasted dogs
Procedure: (§1) The product from Example 4 also was tested for its activity in inhibiting glucagon and insulin secretion. Normal mongrel dogs of either sex were fasted overnight. Control blood samples were obtained, and then an intravenous infusion of saline, somatostatin, or D-Ala^5 -somatostatinwas started. After 30 minutes, L-alanine additionally was administered intravenously for a period of 15 minutes. The infusion of saline, somatostatin, of D-Ala^5 -somatostatin was continued for 15 minutes after completion of the alanine infusion. The total dose of somatostatin or D-Ala^5 -somatostatin which was infused is 200-500 μg/dog (0.20-0.30 μg/kg/ minute), and the total dose of L-alanine infused was 1 mmol.kg./15 minutes.

glucagon = assay: inhibition of glucagon secretion in dogs during L-alanine infusion; assay type: in vivo, mongrel dogs; conditions: intravenous infusion 0.20-0.30 μg/kg/minute (D-Ala5-somatostatin 0.230 μg/kg/min.); fasted dogs
Procedure: as §1

growth hormone = assay: inhibition of the release of growth hormone in pentobarbital-stimulated rats; assay type: in vivo, Spraque-Dawley rats; conditions: 50 μg./rat, subcutaneously; sodium pentobarbital-stimulated; relative to saline control group
Procedure: The product from Example 4 was tested for its activity in inhibiting the release of growth hormone. The procedure which was employed is carried out using mature male Spraque-Dawley rats (Laboratory Supply Company, Indianapolis, Ind.). The test is a modification of the method of P. Brazeau, W. Vale, and R. Guillemen, Endocrinology, 94 184 (1974). In this assay, three groups of eight rats each were employed. First, sodium pentobarbital was administered to all […] rats to stimulate growth hormone secretion. One of the groups of eight rats is the control group and received only saline. A second of the groups received somatostatin at 50 μg./rat, subcutaneously. The third group received D-Ala^5 -somatostatin at 50 μg./rat, subcutaneously. The degree of inhibition of serum growth hormone concentration then was determined with respect to the control group, and the relative activities of D-Ala^5 -somatostatin and somatostatin itself were compared. At a dose level of 50 μg./rat, D-Ala^5 -somatostatin inhibited the increase in serum growth hormone concentration by 40-50 percent, while somatostatin itself produced a 90 percent inhibition.

SMILES: C[C@H](N)C(=O)NCC(=O)N[C@H]1CSSC[C@@H](C(=O)O)NC(=O)[C@H](CO)NC(=O)[C@H]([C@@H](C)O)NC(=O)[C@H](Cc2ccccc2)NC(=O)[C@H]([C@@H](C)O)NC(=O)[C@H](CCCCN)NC(=O)[C@H](Cc2c[nH]c3ccccc23)NC(=O)[C@H](Cc2ccccc2)NC(=O)[C@H](Cc2ccccc2)NC(=O)[C@@H](C)NC(=O)[C@H](CCCCN)NC1=O [D-Ala^5 -somatostatin]
- effect on basal serum insulin concentration (before alanine infusion) (insulin): caused a brief increase in insulin concentration
- effect on the increase in insulin concentration/secretion produced by L-alanine (insulin): did not inhibit the increase in insulin secretion
- effect on the increase in serum glucagon concentration produced by L-alanine (glucagon): did not affect the increase in serum glucagon concentration
- inhibition of the increase in serum growth hormone concentration (growth hormone): 40-50%
